From patent publication US20240398828A1, “HETERO-ATOM CONTAINING COMPOUNDS AND USES THEREOF” (Kumquat Biosciences Inc., priority 2021, published 2024)

How the values were obtained:
[1] = target: T1, PTPN1 (i.e., PTP1B) (Homo sapiens, UniProt P18031); test: Phosphatase activity assay (DiFMUP substrate), PTP1B; type: biochemical; conditions: compounds binned ≤1 uM or >1 uM
T1 sequence (P18031 1-435): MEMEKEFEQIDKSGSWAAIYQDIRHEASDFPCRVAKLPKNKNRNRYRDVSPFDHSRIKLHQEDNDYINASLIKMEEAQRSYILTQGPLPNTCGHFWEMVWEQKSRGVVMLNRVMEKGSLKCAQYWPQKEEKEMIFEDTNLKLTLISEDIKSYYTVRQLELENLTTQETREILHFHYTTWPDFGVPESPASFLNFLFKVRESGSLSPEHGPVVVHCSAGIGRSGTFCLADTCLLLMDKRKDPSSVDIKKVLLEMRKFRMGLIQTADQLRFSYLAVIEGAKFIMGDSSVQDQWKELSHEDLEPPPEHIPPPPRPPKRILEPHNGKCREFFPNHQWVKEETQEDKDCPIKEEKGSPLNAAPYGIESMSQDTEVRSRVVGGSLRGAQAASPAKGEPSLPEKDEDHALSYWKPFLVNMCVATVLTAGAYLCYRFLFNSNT
How it was run: (§1)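 First, serially diluted inhibitor is mixed about 2 minutes with enzyme in pH 7.5 HEPES/NaCl/EDTA/DTT/Tween-20 buffer. Next, DiFMUP is added at the enzyme's Km, approximately 45 μM for PTPN2. Finally, DiFMU appearance is read continuously at room temperature and rates are fitted for IC50.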

[2] = target: T2, PTPN2 (i.e., TC-PTP) (Homo sapiens, UniProt P17706); test: Phosphatase activity assay (DiFMUP substrate), PTPN2; type: biochemical; conditions: compounds binned ≤1 uM or >1 uM
T2 sequence (P17706 1-415): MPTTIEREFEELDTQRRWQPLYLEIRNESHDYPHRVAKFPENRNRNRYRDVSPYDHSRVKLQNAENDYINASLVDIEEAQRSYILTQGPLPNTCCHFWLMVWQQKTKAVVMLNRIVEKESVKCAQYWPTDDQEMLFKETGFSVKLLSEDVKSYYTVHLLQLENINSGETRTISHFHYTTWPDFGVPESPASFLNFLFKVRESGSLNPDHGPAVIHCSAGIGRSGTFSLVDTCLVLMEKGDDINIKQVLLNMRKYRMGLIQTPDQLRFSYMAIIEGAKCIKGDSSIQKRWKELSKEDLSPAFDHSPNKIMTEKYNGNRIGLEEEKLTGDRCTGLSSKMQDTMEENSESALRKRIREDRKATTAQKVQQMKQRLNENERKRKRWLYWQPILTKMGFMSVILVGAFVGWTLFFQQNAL
How it was run: as §1

For `Cn1nc(-c2ccc(O)c(N3CC(=O)NS3(=O)=O)c2F)cc1O` [Compound 479, 5-(2-fluoro-6-hydroxy-3-(5-hydroxy-1-methyl-1H-pyrazol-3-yl)phenyl)-1,2,5-thiadiazolidin-3-one 1,1-dioxide], the IC50 [1] was at most 1 µM and the IC50 [2] was at most 1 µM.
Work on `O=C1CN(c2c(O)ccc(-c3cn(Cc4cccc(F)c4)cn3)c2F)S(=O)(=O)N1` [Compound 200, 5-(2-fluoro-3-(1-(3-fluorobenzyl)-1H-imidazol-4-yl)-6-hydroxyphenyl)-1,2,5-thiadiazolidin-3-one 1,1-dioxide] yielded an IC50 [1] of at most 1 µM and an IC50 [2] of at most 1 µM.
Work on `O=C1CN(c2c(O)ccc(-c3cc(N4CCC5(CCN5)C4)n[nH]3)c2F)S(=O)(=O)N1` (stereo not shown) [Compound 396, 5-(3-(3-(1,6-diazaspiro[3.4]octan-6-yl)-1H-pyrazol-5-yl)-2-fluoro-6-hydroxyphenyl)-1,2,5-thiadiazolidin-3-one 1,1-dioxide] yielded an IC50 [1] of at most 1 µM and an IC50 [2] of at most 1 µM.
In the case of `CC(C)CCC1C=C(c2ccc(O)c(N3CC(=O)NS3(=O)=O)c2F)CN1` (stereo not shown) [Compound 541, 5-(2-fluoro-6-hydroxy-3-(5-isopentyl-2,5-dihydro-1H-pyrrol-3-yl)phenyl)-1,2,5-thiadiazolidin-3-one 1,1-dioxide], the IC50 [1] is reported as at most 1 µM and the IC50 [2] is reported as at most 1 µM.
`CN(C)C(=O)n1cc(-c2ccc(O)c(N3CC(=O)NS3(=O)=O)c2F)cn1` [Compound 532, 4-(3-(1,1-dioxido-4-oxo-1,2,5-thiadiazolidin-2-yl)-2-fluoro-4-hydroxyphenyl)-N,N-dimethyl-1H-pyrazole-1-carboxamide] gave an IC50 [1] of at most 1 µM and an IC50 [2] of at most 1 µM.
`CCn1cc(-c2ccc(O)c(N3CC(=O)NS3(=O)=O)c2F)c(F)n1` [Compound 506, 5-(3-(1-ethyl-3-fluoro-1H-pyrazol-4-yl)-2-fluoro-6-hydroxyphenyl)-1,2,5-thiadiazolidin-3-one 1,1-dioxide] was tested, and the IC50 [1] was at most 1 µM and the IC50 [2] was at most 1 µM.
Work on `CS(=O)(=O)Nc1ccc(-c2ccc(O)c(N3CC(=O)NS3(=O)=O)c2F)cc1` [Compound 236, N-(3′-(1,1-dioxido-4-oxo-1,2,5-thiadiazolidin-2-yl)-2′-fluoro-4′-hydroxy-[1,1′-biphenyl]-4-yl)methanesulfonamide] yielded an IC50 [1] of at most 1 µM and an IC50 [2] of at most 1 µM.
Work on `Cn1ccc(-c2ccc(F)c(N3CC(=O)NS3(=O)=O)c2F)c1` [Compound 116, 5-(2,6-difluoro-3-(1-methyl-1H-pyrrol-3-yl)phenyl)-1,2,5-thiadiazolidin-3-one 1,1-dioxide] yielded an IC50 [1] of over 1 µM and an IC50 [2] of over 1 µM.
`O=C1CN(c2c(O)ccc(-c3cnn4ccccc34)c2F)S(=O)(=O)N1` [Compound 195, 5-(2-fluoro-6-hydroxy-3-(pyrazolo[1,5-a]pyridin-3-yl)phenyl)-1,2,5-thiadiazolidin-3-one 1,1-dioxide] was tested, and the IC50 [1] was at most 1 µM and the IC50 [2] was at most 1 µM.
`COCC1C=C(c2ccc(O)c(N3CC(=O)NS3(=O)=O)c2F)CN1` (stereo not shown) [Compound 481, 5-(2-fluoro-6-hydroxy-3-(5-(methoxymethyl)-2,5-dihydro-1H-pyrrol-3-yl)phenyl)-1,2,5-thiadiazolidin-3-one 1,1-dioxide] gave an IC50 [1] of at most 1 µM and an IC50 [2] of at most 1 µM.
`Cc1c(C2CC2)n[nH]c1-c1ccc(O)c(N2CC(=O)NS2(=O)=O)c1F` [Compound 254, 5-(3-(3-cyclopropyl-4-methyl-1H-pyrazol-5-yl)-2-fluoro-6-hydroxyphenyl)-1,2,5-thiadiazolidin-3-one 1,1-dioxide] was tested, and the IC50 [1] was at most 1 µM and the IC50 [2] was at most 1 µM.
In the case of `O=C1CN(c2c(O)ccc(-c3cn(C(F)F)nc3F)c2F)S(=O)(=O)N1` [Compound 509, 5-(3-(1-(difluoromethyl)-3-fluoro-1H-pyrazol-4-yl)-2-fluoro-6-hydroxyphenyl)-1,2,5-thiadiazolidin-3-one 1,1-dioxide], the IC50 [1] is reported as at most 1 µM and the IC50 [2] is reported as at most 1 µM.
`O=C1CN(c2c(O)ccc(-c3cc(N4CCCCC4)n[nH]3)c2F)S(=O)(=O)N1` [Compound 332, 5-(2-fluoro-6-hydroxy-3-(3-(piperidin-1-yl)-1H-pyrazol-5-yl)phenyl)-1,2,5-thiadiazolidin-3-one 1,1-dioxide] showed an IC50 [1] of at most 1 µM and an IC50 [2] of at most 1 µM.
Compound `O=C1CN(c2c(O)ccc(-c3cccc(NS(=O)(=O)C4CC4)c3)c2F)S(=O)(=O)N1` [Compound 449, N-(3′-(1,1-dioxido-4-oxo-1,2,5-thiadiazolidin-2-yl)-2′-fluoro-4′-hydroxy-[1,1′-biphenyl]-3-yl)cyclopropanesulfonamide] has an IC50 [1] of at most 1 µM and an IC50 [2] of at most 1 µM.
Work on `CCC1C=C(c2ccc(O)c(N3CC(=O)NS3(=O)=O)c2F)CNC1` (stereo not shown) [Compound 497, 5-(3-(5-ethyl-1,2,5,6-tetrahydropyridin-3-yl)-2-fluoro-6-hydroxyphenyl)-1,2,5-thiadiazolidin-3-one 1,1-dioxide] yielded an IC50 [1] of at most 1 µM and an IC50 [2] of at most 1 µM.
For `COCCCc1cc(-c2ccc(O)c(N3CC(=O)NS3(=O)=O)c2F)[nH]n1` [Compound 243, 5-(2-fluoro-6-hydroxy-3-(3-(3-methoxypropyl)-1H-pyrazol-5-yl)phenyl)-1,2,5-thiadiazolidin-3-one 1,1-dioxide], the IC50 [1] was at most 1 µM and the IC50 [2] was at most 1 µM.
With `N#Cc1ccc(-c2ccc(O)c(N3CC(=O)NS3(=O)=O)c2F)cn1` [Compound 144, 5-(3-(1,1-dioxido-4-oxo-1,2,5-thiadiazolidin-2-yl)-2-fluoro-4-hydroxyphenyl)picolinonitrile] the IC50 [1] was at most 1 µM and the IC50 [2] was at most 1 µM.
`COc1ccccc1-n1cnc(-c2ccc(O)c(N3CC(=O)NS3(=O)=O)c2F)c1` [Compound 346, 5-(2-fluoro-6-hydroxy-3-(1-(2-methoxyphenyl)-1H-imidazol-4-yl)phenyl)-1,2,5-thiadiazolidin-3-one 1,1-dioxide] showed an IC50 [1] of at most 1 µM and an IC50 [2] of at most 1 µM.
`Cn1nc(-c2ccc(O)c(N3CC(=O)NS3(=O)=O)c2F)cc1C1CC1(F)F` (stereo not shown) [Compound 319, 5-(3-(5-(2,2-difluorocyclopropyl)-1-methyl-1H-pyrazol-3-yl)-2-fluoro-6-hydroxyphenyl)-1,2,5-thiadiazolidin-3-one 1,1-dioxide] gave an IC50 [1] of at most 1 µM and an IC50 [2] of at most 1 µM.
`Cc1noc(C)c1Cn1ccc(-c2ccc(O)c(N3CC(=O)NS3(=O)=O)c2F)c1` [Compound 390, 5-(3-(1-((3,5-dimethylisoxazol-4-yl)methyl)-1H-pyrrol-3-yl)-2-fluoro-6-hydroxyphenyl)-1,2,5-thiadiazolidin-3-one 1,1-dioxide] was tested, and the IC50 [1] was at most 1 µM and the IC50 [2] was at most 1 µM.
`O=C1CN(c2c(O)ccc(-c3cc(C4CC4C(F)F)n[nH]3)c2F)S(=O)(=O)N1` (stereo not shown) [Compound 492, 5-(3-(3-(2-(difluoromethyl)cyclopropyl)-1H-pyrazol-5-yl)-2-fluoro-6-hydroxyphenyl)-1,2,5-thiadiazolidin-3-one 1,1-dioxide] was tested, and the IC50 [1] was at most 1 µM and the IC50 [2] was at most 1 µM.
`O=C1CN(c2c(O)ccc(-c3ccnc(OCC4CC4)c3)c2F)S(=O)(=O)N1` [Compound 167, 5-(3-(2-(cyclopropylmethoxy)pyridin-4-yl)-2-fluoro-6-hydroxyphenyl)-1,2,5-thiadiazolidin-3-one 1,1-dioxide] was tested, and the IC50 [1] was at most 1 µM and the IC50 [2] was at most 1 µM.
With `O=C1CN(c2c(O)ccc(-c3cnn(C4CCC(O)CC4)c3)c2F)S(=O)(=O)N1` (stereo not shown) [Compound 408, 5-(2-fluoro-6-hydroxy-3-(1-(4-hydroxycyclohexyl)-1H-pyrazol-4-yl)phenyl)-1,2,5-thiadiazolidin-3-one 1,1-dioxide] the IC50 [1] was at most 1 µM and the IC50 [2] was at most 1 µM.
`O=C1CN(c2c(O)ccc(-c3cc(CCCC4CC4)n[nH]3)c2F)S(=O)(=O)N1` [Compound 464, 5-(3-(3-(3-cyclopropylpropyl)-1H-pyrazol-5-yl)-2-fluoro-6-hydroxyphenyl)-1,2,5-thiadiazolidin-3-one 1,1-dioxide] showed an IC50 [1] of at most 1 µM and an IC50 [2] of at most 1 µM.
Work on `CC(C)n1cnc(-c2ccc(O)c(N3CC(=O)NS3(=O)=O)c2F)c1` [Compound 165, 5-(2-fluoro-6-hydroxy-3-(1-isopropyl-1H-imidazol-4-yl)phenyl)-1,2,5-thiadiazolidin-3-one 1,1-dioxide] yielded an IC50 [1] of at most 1 µM and an IC50 [2] of at most 1 µM.
Compound `O=C1CN(c2c(O)ccc(C3=CCC(NCC4CC4)CC3)c2F)S(=O)(=O)N1` (stereo not shown) [Compound 315, 5-(4′-((cyclopropylmethyl)amino)-2-fluoro-4-hydroxy-2′,3′,4′,5′-tetrahydro-[1,1′-biphenyl]-3-yl)-1,2,5-thiadiazolidin-3-one 1,1-dioxide] has an IC50 [1] of at most 1 µM and an IC50 [2] of at most 1 µM.
